The results in this text go back to US20240376097A1, “BCL-2 Inhibitor” (BeiGene Ltd., priority 2020, published 2024).

Data set [1] relates to BCL-2 G101V knock-in cell line H96 (derive from RS4;11). The data set can be described thus: Bcl 2-G101V Knock-In RS4;11 Cell Proliferation Assay. The data set is classed as cell-based. The following applies: Homo sapiens, RS4-11, 48 h, RS4;11 Bcl-2 G101V knock-in clone H96, 48 hrs, CellTiter-GLO, read-out: Cellular proliferation assay (IC50, nM) RS4. The gist of the method: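 CellTiter-Glo luminescence after 48 h, 37 °C compound treatment (10 concentrations, maximum 1 μM or 10 μM) gave mean IC50 values. Cells were 50,000 per well of H96, a BCL2-G101V knock-in single clone derived from RS4;11 by Cas9 editing.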

A short description of the next data set: Mouse PK Study. The data set is classed as in vivo. Particulars: plasma, male CD-1 mouse. The procedure: Biological Example: Mouse PK Study
The pharmacokinetics of compounds were evaluated in male CD-1 mouse via Intravenous (dose of 1 mg/kg) and Oral Administration (dose of 10 mg/kg). For intravenous administration study, test compounds were dissolved in DMSO/EtOH/Cremophor EL/D5W (2.5/10/20/67.5, by volume) and injected with a 1 mg/kg dose via tail vein. For oral administration study, test compounds were dissolved in PEG400/Phosal 50 PG/EtOH (30/60/10, by volume) and administrated to mice at 10 mg/kg by gavage. Blood was collected into EDTA-K2 anticoagulant tube at 5 (IV only). 15, and 30 min and 1, 2, 4, 8 and 24 h after administration. Approximately 30 μL blood was collected at each time point. And then the blood was centrifuged at 3000 g for 5 min at 4° C. using a centrifuge to obtain the plasma. The plasma sample was transferred into a tube and stored in a freezer at approximately −20° C. until the determination of concentration by LC-MS/MS. Pharmacokinetic parameter were estimated by using WinNonlin software (version 8.1, Pharsight Corporation, CA, USA) with non-compartmental method. The following pharmacokinetic parameters were calculated, whenever possible from the plasma concentration-time data: CL, Vd, T1/2, AUClast, AUCinf for IV administration and Tmax, Cmax, AUClast, AUCinf, T1/2 for PO administration. All animals are free fed before experiment. For comparison purpose, the PK results of certain compounds in previous disclosure were obtained using the same methods.

`COc1ccc(CN2CCN(C3CC4(CCN(c5ccc(C(=O)NS(=O)(=O)c6ccc(NCC7(F)CCOCC7)c([N+](=O)[O-])c6)c(Oc6cnc7[nH]ccc7c6)c5)CC4)C3)[C@H](c3ccccc3C(C)C)C2)cc1` (single isomer, unassigned) [Example 32, (R or S)-2-((1H-pyrrolo[2,3-b]pyridin-5-yl)oxy)-N-((4-(((4-fluorotetrahydro-2H-pyran-4-yl)methyl)amino)-3-nitrophenyl)sulfonyl)-4-(2-(2-(2-isopropylphenyl)-4-(4-methoxybenzyl)piperazin-1-yl)-7-azaspiro[3.5]nonan-7-yl)benzamide]: in data set [1], the IC50 stood at 0.96 nM. Further, in “Mouse PK Study” (Iv dosing (1 mg/kg)), the AUC(0-t) was 10500 ng·h/mL, the Vd came to 0.48 L/kg and the clearance was 1.5 mL/min/kg. In “Mouse PK Study” (Po dosing (10 mg/kg)), this molecule yielded an AUC(0-t) of 21200 ng·h/mL and a Cmax of 1440 ng/mL.
Turning to `CC(C)c1ccccc1[C@@H]1CN(Cc2ccc(F)c(F)c2)CCN1C1CC2(CCN(c3ccc(C(=O)NS(=O)(=O)c4ccc(NC[C@H]5CC[C@](C)(O)CC5)c([N+](=O)[O-])c4)c(Oc4cnc5[nH]ccc5c4)c3)CC2)C1` (single isomer, unassigned) [Example 52a, 2-((1H-pyrrolo[2,3-b]pyridin-5-yl)oxy)-4-(2-((R or S)-4-(3,4-difluorobenzyl)-2-(2-isopropylphenyl)piperazin-1-yl)-7-azaspiro[3.5]nonan-7-yl)-N-((4-((((1r,4r)-4-hydroxy-4-methylcyclohexyl)methyl)amino)-3-nitrophenyl)sulfonyl)benzamide], in data set [1], the IC50 was 1.67 nM. In “Mouse PK Study” (Iv dosing (1 mg/kg)), this molecule showed an AUC(0-t) of 6510 ng·h/mL, a Vd of 0.62 L/kg and a clearance of 2.6 mL/min/kg. In the data set “Mouse PK Study” (Po dosing (10 mg/kg)), this molecule came in with an AUC(0-t) of 20700 ng·h/mL and a Cmax of 2140 ng/mL.
`COc1ccc(CN2CCN(C3CC4(CCN(c5ccc(C(=O)NS(=O)(=O)c6ccc(NC[C@H]7CC[C@](C)(O)CC7)c([N+](=O)[O-])c6)c(Oc6cnc7[nH]ccc7c6)c5)CC4)C3)[C@H](c3ccccc3C(C)C)C2)cc1` [Example 19a, 2-((1H-pyrrolo[2,3-b]pyridin-5-yl)oxy)-N-((4-((((1r,4r)-4-hydroxy-4-methylcyclohexyl)methyl)amino)-3-nitrophenyl)sulfonyl)-4-(2-((R)-2-(2-isopropylphenyl)-4-(4-methoxybenzyl)piperazin-1-yl)-7-azaspiro[3.5]nonan-7-yl)benzamide]: the IC50 in data set [1] came to 0.57 nM. In the data set “Mouse PK Study” (Iv dosing (1 mg/kg)), this molecule had an AUC(0-t) of 12300 ng·h/mL, a Vd of 0.48 L/kg and a clearance of 1.4 mL/min/kg. For the same molecule, in the data set “Mouse PK Study” (Po dosing (10 mg/kg)), the AUC(0-t) was found to be 20000 ng·h/mL and the Cmax was 1590 ng/mL.
As for `COc1cc(CN2CCN(C3CC4(C3)CN(c3ccc(C(=O)NS(=O)(=O)c5ccc(NC[C@H]6CC[C@](C)(O)CC6)c([N+](=O)[O-])c5)c(Oc5cnc6[nH]cc(F)c6c5)c3)C4)[C@H](c3ccccc3C(C)C)C2)cc(F)c1OC` [Example 230, 2-((3-fluoro-1H-pyrrolo[2,3-b]pyridin-5-yl)oxy)-4-(6-((R)-4-(3-fluoro-4,5-dimethoxybenzyl)-2-(2-isopropylphenyl)piperazin-1-yl)-2-azaspiro[3.3]heptan-2-yl)-N-((4-((((1r,4r)-4-hydroxy-4-methylcyclohexyl)methyl)amino)-3-nitrophenyl)sulfonyl)benzamide], the IC50 in data set [1] was 0.28 nM.
For the molecule `COc1cc(CN2CCN(C3CC4(C3)CN(c3ccc(C(=O)NS(=O)(=O)c5ccc(NC[C@H]6CC[C@](C)(O)CC6)c([N+](=O)[O-])c5)c(Oc5cnc6[nH]cc(F)c6c5)c3)C4)[C@H](c3ccccc3C(C)C)C2)ccc1C1CC1` [Example 232, 4-(6-((R)-4-(4-cyclopropyl-3-methoxybenzyl)-2-(2-isopropylphenyl)piperazin-1-yl)-2-azaspiro[3.3]heptan-2-yl)-2-((3-fluoro-1H-pyrrolo[2,3-b]pyridin-5-yl)oxy)-N-((4-((((1r,4r)-4-hydroxy-4-methylcyclohexyl)methyl)amino)-3-nitrophenyl)sulfonyl)benzamide], the IC50 in data set [1] is 0.19 nM. In the data set “Mouse PK Study” (Iv dosing (1 mg/kg)), this molecule gave an AUC(0-t) of 14400 ng·h/mL, a Vd of 1.2 L/kg and a clearance of 1.2 mL/min/kg. In “Mouse PK Study” (Po dosing (10 mg/kg)), the AUC(0-t) is 18300 ng·h/mL and the Cmax is 1090 ng/mL.
For `COc1cc(CN2CCN(C3CC4(CCN(c5ccc(C(=O)NS(=O)(=O)c6ccc(NC[C@H]7CC[C@](C)(O)CC7)c([N+](=O)[O-])c6)c(Oc6cnc7[nH]ccc7c6)c5)CC4)C3)[C@H](c3ccccc3C(C)C)C2)ccc1C1CC1` [Example 257], the IC50 in data set [1] turned out to be 0.53 nM.
Consider `COc1cc(CN2CCN(C3CC4(C3)CN(c3ccc(C(=O)NS(=O)(=O)c5ccc(NC[C@H]6CC[C@](C)(O)CC6)c([N+](=O)[O-])c5)c(Oc5cnc6[nH]cc(F)c6c5)c3)C4)[C@H](c3ccccc3C(C)C)C2)ccc1C` [Example 274, 2-((3-fluoro-1H-pyrrolo[2,3-b]pyridin-5-yl)oxy)-N-((4-((((1r,4r)-4-hydroxy-4-methylcyclohexyl)methyl)amino)-3-nitrophenyl)sulfonyl)-4-(6-((R)-2-(2-isopropylphenyl)-4-(3-methoxy-4-methylbenzyl)piperazin-1-yl)-2-azaspiro[3.3]heptan-2-yl) benzamide], for which the IC50 in data set [1] was determined as 0.29 nM.
Same read-out and setting: next, `COc1cc(CN2CCN(C3CC4(CCN(c5ccc(C(=O)NS(=O)(=O)c6ccc(NC[C@H]7CC[C@](C)(O)CC7)c([N+](=O)[O-])c6)c(Oc6cnc7[nH]cc(F)c7c6)c5)CC4)C3)[C@H](c3ccccc3C(C)C)C2)cc2ccoc12` [Example 281, 2-((3-fluoro-1H-pyrrolo[2,3-b]pyridin-5-yl)oxy)-N-((4-((((1r,4r)-4-hydroxy-4-methylcyclohexyl)methyl)amino)-3-nitrophenyl)sulfonyl)-4-(2-((R)-2-(2-isopropylphenyl)-4-((7-methoxybenzofuran-5-yl)methyl)piperazin-1-yl)-7-azaspiro[3.5]nonan-7-yl)benzamide]: 0.31 nM.
Still for that read-out and setting: next, `COc1cc(CN2CCN(C3CC4(CCN(c5ccc(C(=O)NS(=O)(=O)c6ccc(NC[C@H]7CC[C@](C)(O)CC7)c([N+](=O)[O-])c6)c(Oc6cnc7[nH]cc(F)c7c6)c5)CC4)C3)[C@H](c3ccccc3C(C)C)C2)cc2c1OCC2(C)C` [Example 285, 2-((3-fluoro-1H-pyrrolo[2,3-b]pyridin-5-yl)oxy)-N-((4-((((1r,4r)-4-hydroxy-4-methylcyclohexyl)methyl)amino)-3-nitrophenyl)sulfonyl)-4-(2-((R)-2-(2-isopropylphenyl)-4-((7-methoxy-3,3-dimethyl-2,3-dihydrobenzofuran-5-yl)methyl)piperazin-1-yl)-7-azaspiro [3.5]nonan-7-yl)benzamide]: 0.41 nM; `COc1cc(CN2CCN(C3CC4(C3)CN(c3ccc(C(=O)NS(=O)(=O)c5ccc(NC[C@H]6CC[C@](C)(O)CC6)c([N+](=O)[O-])c5)c(Oc5cnc6[nH]cc(F)c6c5)c3)C4)[C@H](c3ccccc3C(C)C)C2)cc2c1OCCC2` [Example 312, 2-((3-fluoro-1H-pyrrolo[2,3-b]pyridin-5-yl)oxy)-N-((4-((((1r,4r)-4-hydroxy-4-methylcyclohexyl)methyl)amino)-3-nitrophenyl)sulfonyl)-4-(6-((R)-2-(2-isopropylphenyl)-4-((8-methoxychroman-6-yl)methyl)piperazin-1-yl)-2-azaspiro[3.3]heptan-2-yl)benzamide]: 0.3 nM; `COc1cc(CN2CCN(C3CC4(C3)CN(c3ccc(C(=O)NS(=O)(=O)c5ccc(NC[C@H]6CC[C@](C)(O)CC6)c([N+](=O)[O-])c5)c(Oc5cnc6[nH]cc(F)c6c5)c3)C4)[C@H](c3ccccc3C(C)C)C2)ccc1OC1CC1` [Example 321, 4-(6-((R)-4-(4-cyclopropoxy-3-methoxybenzyl)-2-(2-isopropylphenyl)piperazin-1-yl)-2-azaspiro[3.3]heptan-2-yl)-2-((3-fluoro-1H-pyrolo[2,3-b]pyridin-5-yl)oxy)-N-((4-((((1r,4r)-4-hydroxy-4-methylcyclohexy)methyl)amino)-3-nitrophenyl)sulfonyl)benzamide]: 0.24 nM.
The same measure, in the same setting: as for `COc1cc(CN2CCN(C3CC4(C3)CN(c3ccc(C(=O)NS(=O)(=O)c5ccc(NC[C@H]6CC[C@](C)(O)CC6)c([N+](=O)[O-])c5)c(Oc5cnc6[nH]cc(F)c6c5)c3)C4)[C@H](c3ccccc3C(C)C)C2)ccc1N1CCOCC1` [Example 361, 2-((3-fluoro-1H-pyrrolo[2,3-b]pyridin-5-yl)oxy)-N-((4-((((1r,4r)-4-hydroxy-4-methylcyclohexyl)methyl)amino)-3-nitrophenyl)sulfonyl)-4-(6-((R)-2-(2-isopropylphenyl)-4-(3-methoxy-4-morpholinobenzyl)piperazin-1-yl)-2-azaspiro[3.3]heptan-2-yl) benzamide], the figure is 0.13 nM.
